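Where inhibition never reached the appropriate level, the endpoint shown equals the highest concentration tested. Otherwise, values were interpolated linearly from a five-concentration, 48-hour dose response in 96-well plates. TGI denotes the concentration required for complete inhibition of growth.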

The results in this text go back to PubChem BioAssay (NCI).

Some test systems named below: ACHN renal; CCRF-CEM leukemia; DU-145 prostate; HCC-2998 colon; IGROV1 ovarian; KM12 colon; MDA-MB-231 breast; MDA-MB-435; MOLT-4 leukemia; NCI-H460 lung; NCI-H522 lung; SK-OV-3 ovarian; UO-31 renal.
Common to all, as to assay: NCI anticancer screen, dose series, 48 h

Regarding `Cc1nnc(N)nc1C/C=C/C(C)Sc1ccc(Cl)cc1` (stereo not given), the TGI with ACHN renal was found to be 29 µM; in the assay on CCRF-CEM leukemia, 26.4 µM; in the assay on DU-145 prostate it was 38.1 µM; with HCC-2998 colon, 31.3 µM; in the assay on IGROV1 ovarian it was 13.5 µM; with KM12 colon, 20.7 µM. For the same molecule, the TGI in the assay with MDA-MB-231 breast is above 41.9 µM; with MDA-MB-435, above 50.8 µM; in the assay with MOLT-4 leukemia, above 100 µM; with NCI-H460 lung, 30.3 µM; in the assay on NCI-H522 lung, 16.1 µM; in the assay with SK-OV-3 ovarian it was 21.9 µM. The molecule also yielded a TGI in the assay on UO-31 renal of 19.4 µM.

Regarding `O=c1[nH]nc(-c2ccccc2)n1-n1cccc1`, the TGI with ACHN renal, in the assay on CCRF-CEM leukemia, in the assay on DU-145 prostate, in the assay on HCC-2998 colon, in the assay on IGROV1 ovarian and in the assay on KM12 colon was above 100 µM each time. The TGI in the assay on MDA-MB-231 breast, with MDA-MB-435, with MOLT-4 leukemia, in the assay on NCI-H460 lung, in the assay on NCI-H522 lung and in the assay with SK-OV-3 ovarian was above 100 µM each time. This molecule also registered a TGI in the assay on UO-31 renal above 100 µM.

For `CC(C)(CN1CCCCC1)C(=O)CC(SCCS(=O)(=O)O)c1ccccc1` (stereo not given), the TGI is 52.9 µM in the assay on ACHN renal; 32.1 µM with CCRF-CEM leukemia; 29.3 µM in the assay on DU-145 prostate; 41.8 µM with HCC-2998 colon; above 100 µM in the assay with IGROV1 ovarian; 44.8 µM in the assay on KM12 colon. Further, the TGI was 32.4 µM in the assay with MDA-MB-231 breast; 29.3 µM with MDA-MB-435; 36.1 µM in the assay with MOLT-4 leukemia; above 100 µM in the assay with NCI-H460 lung; 5.83 µM in the assay on NCI-H522 lung; above 100 µM with SK-OV-3 ovarian. The same molecule showed a TGI in the assay with UO-31 renal of 25.1 µM.

Consider `CCOC(=O)Cc1ccc(Nc2nc3cc(F)c(F)cc3nc2C(=O)OCC)cc1`, for which the TGI was 33.5 µM in the assay on ACHN renal; above 100 µM with CCRF-CEM leukemia; above 100 µM in the assay with DU-145 prostate; 69.6 µM in the assay with HCC-2998 colon; above 100 µM with IGROV1 ovarian; above 100 µM in the assay with KM12 colon. For the same molecule, the TGI was 9.08 µM in the assay on MDA-MB-231 breast; above 100 µM in the assay on MDA-MB-435; above 100 µM in the assay on MOLT-4 leukemia; above 100 µM in the assay on NCI-H460 lung; 35.5 µM in the assay on NCI-H522 lung; above 100 µM with SK-OV-3 ovarian. Also, the TGI in the assay with UO-31 renal was determined as 3.15 µM.

For `CCOC(=O)C(CCSC)(CCSC)C(=O)OCC`, the TGI in the assay on ACHN renal, in the assay on CCRF-CEM leukemia, with DU-145 prostate, in the assay on HCC-2998 colon, in the assay on IGROV1 ovarian and in the assay with KM12 colon was above 100 µM in each case. Besides, the TGI in the assay on MDA-MB-231 breast is above 100 µM; with MDA-MB-435, above 100 µM; in the assay with MOLT-4 leukemia, above 100 µM; with NCI-H460 lung, above 100 µM; with NCI-H522 lung, above 100 µM; in the assay on SK-OV-3 ovarian, 72.2 µM. Further, the TGI in the assay with UO-31 renal is above 100 µM.

For `CSc1c(S(C)=O)c2ccccc2n1C` (stereo not given), the TGI in the assay with ACHN renal, in the assay with CCRF-CEM leukemia, in the assay with DU-145 prostate, in the assay with HCC-2998 colon, in the assay on IGROV1 ovarian and in the assay on KM12 colon was above 100 µM each time. Further, the TGI in the assay with MDA-MB-231 breast, with MDA-MB-435, in the assay on MOLT-4 leukemia, with NCI-H460 lung, in the assay with NCI-H522 lung and in the assay with SK-OV-3 ovarian was above 100 µM throughout. The same molecule showed a TGI with UO-31 renal above 100 µM.

Consider `CC(=O)O[C@H]1C(=O)[C@@]2(C)[C@H]([C@H](OC(=O)c3ccccc3)[C@]3(O)C[C@H](OC(=O)[C@H](O)[C@@H](NC(=O)OC(C)(C)C)c4ccco4)C(C)=C1C3(C)C)[C@]1(OC(C)=O)CO[C@@H]1C[C@@H]2O`, for which the TGI in the assay on ACHN renal was above 48.1 µM; with CCRF-CEM leukemia, 35.7 µM; in the assay on DU-145 prostate, below 0.005 µM; in the assay on HCC-2998 colon, 0.00901 µM; in the assay with IGROV1 ovarian, above 50 µM; with KM12 colon, above 50 µM. Besides, the TGI in the assay on MDA-MB-231 breast was 14.7 µM; in the assay with MDA-MB-435 it was 2.27 µM; in the assay with MOLT-4 leukemia, 25.9 µM; with NCI-H460 lung, above 19 µM; in the assay on NCI-H522 lung it was 0.00875 µM; in the assay with SK-OV-3 ovarian it was 7.38 µM. For the same molecule, in the assay on UO-31 renal, the TGI was above 34.9 µM.

Consider `O=C(OCC1CC(C2(O)CCCCC2)C(=O)O1)c1ccccc1` (stereo not given), for which the TGI in the assay on ACHN renal, in the assay with CCRF-CEM leukemia, in the assay with DU-145 prostate, in the assay with HCC-2998 colon, with IGROV1 ovarian and with KM12 colon was above 100 µM each time. The TGI in the assay with MDA-MB-231 breast, in the assay with MDA-MB-435, in the assay with MOLT-4 leukemia, in the assay on NCI-H460 lung, in the assay on NCI-H522 lung and in the assay with SK-OV-3 ovarian was above 100 µM each time. Moreover, in the assay on UO-31 renal, the TGI was above 100 µM.

In the case of `O=C(O)c1ccc(Nc2nc3ccc(C(F)(F)F)cc3nc2C(=O)O)cc1`, the TGI with ACHN renal, with CCRF-CEM leukemia, with DU-145 prostate, in the assay with HCC-2998 colon, with IGROV1 ovarian and in the assay on KM12 colon was above 100 µM each time. Besides, the TGI in the assay with MDA-MB-231 breast, with MDA-MB-435, with MOLT-4 leukemia, with NCI-H460 lung, in the assay on NCI-H522 lung and in the assay on SK-OV-3 ovarian was above 100 µM each time. In the assay with UO-31 renal, this molecule gave a TGI above 100 µM.

`COC(=O)CCc1cc(OC)c2oc(-c3ccc(OC)c(OC)c3)c(CO)c2c1`: the TGI in the assay on ACHN renal, in the assay on CCRF-CEM leukemia, in the assay on DU-145 prostate, with HCC-2998 colon, in the assay on IGROV1 ovarian and in the assay with KM12 colon was above 100 µM throughout. The TGI in the assay on MDA-MB-231 breast, in the assay on MDA-MB-435, in the assay with MOLT-4 leukemia, in the assay with NCI-H460 lung, in the assay on NCI-H522 lung and in the assay on SK-OV-3 ovarian was above 100 µM throughout. Also, the TGI in the assay with UO-31 renal was above 100 µM.
